{
  "source": "patent US20050026949A1",
  "about": "“Methods of therapeutic treatment using amounts of retinoids without regard to body weight” (Allergan, Inc., priority 2003, published 2005)",
  "type_in_all_cases": "in vivo, human",
  "key": {"[1]": {"experiment": "PK and PD interaction studies of oral tazarotene with oral contraceptives (Example 8)", "protocol": "It is the objective of this study to determine if there are pharmacokinetic (PK) and pharmacodynamic (PD) interactions between tazarotene and commonly prescribed oral contraceptives (OCs) when coadministered together.\nThree separate clinical studies are conducted to evaluate the PK and PD interactions of oral tazarotene and OCs in healthy volunteers. Two studies evaluate daily doses of norethindrone (NE)/ethinyl estradiol (EE) with daily doses of tazarotene 1.1 mg (N=27) and 6 mg (N=29). The third study assesses the daily doses of norgestimate (NGM)/EE with daily doses of tazarotene 6 mg (N=26). OCs are administered for three consecutive menstrual cycles. Daily doses of tazarotene are started during the 2nd cycle and continued through the end of the studies. PK parameters for EE, NE, and NGM (AUC0-24 and Cmax) are determined before tazarotene dosing and after tazarotene dosing on day 6 of the 2nd and 3rd cycles. Serum concentrations of luteinizing hormone (LH) and follicle-stimulating hormone (FSH)-markers of contraceptive efficacy are also evaluated before tazarotene dosing and after tazarotene dosing on days 2, 4, and 6 of the 2nd and 3rd cycles. Serum progesterone levels are assessed on days 18 and 20 of the 2nd and 3rd cycles.\nThe plasma of each subject is tested for Cmax and AUC of tazarotenic acid, the primary active retinoid agent in systemic circulation as the result of the oral administration of tazarotene."}, "patients": {"system": "patients", "experiment": "Two placebo-controlled 24-week safety studies of oral tazarotene plus dose-response evaluations (Example 3)", "protocol": "Two multicenter, double-blind, randomized, placebo-controlled 24-week studies of identical design are conducted to evaluate the safety of oral tazarotene. In addition, 16- to 24-week dose-response evaluations are performed.\nIn the two safety trials, the incidence of adverse side effects with a 4.5 mg dose administered orally once daily is compared to the incidence of the same side effects with a placebo. […] The majority of these were mild in severity and typical of adverse effects associated with oral retinoids."}, "[2]": {"system": "patients having nodulocystic acne", "experiment": "Two placebo-controlled dose-ranging safety studies of oral tazarotene (Example 5)", "settings": "for incidence of joint disorder: placebo 0%; for incidence of arthralgia: placebo 6%; for incidence of myalgia: placebo 9%; for incidence of asthenia: placebo 13%; for incidence of dry skin: placebo 19%; for incidence of headache: placebo 28%; for incidence of cheilitis: placebo 31%; for depression: placebo 1 (2%); for emotional lability (all cases mild): placebo 2 (4%)", "protocol": "Two placebo-controlled dose-ranging studies are conducted to evaluate the safety of oral tazarotene in patients having nodulocystic acne. In the first study, patients receive orally administered tazarotene at daily doses of 0.4 mg to 2.8 mg in 96 (71+25) patients (12 weeks treatment plus 12 weeks post-treatment). In the second study, daily doses of 0.75 mg to 6 mg tazarotene are administered to 181 patients (24 weeks treatment plus 12 weeks post-treatment)."}, "[3]": {"settings": "4.5 mg orally once daily, placebo 0%"}, "[4]": {"settings": "4.5 mg orally once daily, placebo 1%"}, "[5]": {"settings": "4.5 mg orally once daily, placebo 2%"}, "[6]": {"settings": "4.5 mg orally once daily, placebo 3%"}, "[7]": {"settings": "4.5 mg orally once daily, placebo 8%"}, "[8]": {"settings": "4.5 mg orally once daily, placebo <1%"}},
  "data": [
    {"smiles": "CCOC(=O)c1ccc(C#Cc2ccc3c(c2)C(C)(C)CCS3)nc1", "note": "[tazarotene]", "values": [
      {"measurement": "effect on PK or efficacy of NE/EE and NGM/EE oral contraceptives", "setting": "[1]; orally, up to 6 mg once daily", "value": "does not affect"},
      {"measurement": "90% confidence intervals of AUC0-24 and Cmax for EE, NE, and NGM", "setting": "[1]; tazarotene 1.1 mg or 6 mg daily with NE/EE, 6 mg daily with NGM/EE", "value": "within the 80-125% boundary"},
      {"measurement": "90% confidence intervals of FSH and LH", "setting": "[1]; tazarotene coadministered with oral contraceptives", "value": "generally within the 80-125% boundary"},
      {"measurement": "90% confidence intervals of progesterone concentrations", "setting": "[1]; tazarotene coadministered with oral contraceptives, days 18 and 20 of 2nd and 3rd cycles", "value": "within the 80-125% boundary"},
      {"measurement": "serum FSH and LH levels", "setting": "[1]; tazarotene coadministered with oral contraceptives, follicular phase", "value": "remain within the normal ranges"},
      {"measurement": "incidence of patients discontinuing due to adverse effects", "setting": "patients; 4.5 mg (n=348)", "value": 3, "unit": "%"},
      {"measurement": "incidence of ocular, auditory, or thyroid problems", "setting": "patients; 4.5 mg orally once daily vs placebo", "value": "no statistically significant between-group difference"},
      {"measurement": "incidence of agitation", "setting": "patients; [3]", "value": "< 1", "unit": "%"},
      {"measurement": "incidence of dermatitis", "setting": "patients; [3]", "value": 1, "unit": "%"},
      {"measurement": "incidence of hyperglycemia", "setting": "patients; [3]", "value": 2, "unit": "%"},
      {"measurement": "incidence of foot pain", "setting": "patients; [4]", "value": 3, "unit": "%"},
      {"measurement": "incidence of joint disorder", "setting": "patients; [4]", "value": 4, "unit": "%"},
      {"measurement": "incidence of nasal dryness", "setting": "patients; [4]", "value": 4, "unit": "%"},
      {"measurement": "incidence of rash", "setting": "patients; [4]", "value": 3, "unit": "%"},
      {"measurement": "incidence of altered hormone levels (elevated TSH and T4, decreased T4, abnormal thyroid function test)", "setting": "patients; [5]", "value": 0, "unit": "%"},
      {"measurement": "incidence of depression", "setting": "patients; [5]", "value": 1, "unit": "%"},
      {"measurement": "incidence of back pain", "setting": "patients; [6]", "value": 7, "unit": "%"},
      {"measurement": "incidence of emotional lability", "setting": "patients; [6]", "value": 3, "unit": "%"},
      {"measurement": "incidence of arthralgia", "setting": "patients; [7]", "value": 17, "unit": "%"},
      {"measurement": "incidence of myalgia", "setting": "patients; [7]", "value": 14, "unit": "%"},
      {"measurement": "incidence of headache", "setting": "patients; 4.5 mg orally once daily, placebo 12%", "value": 19, "unit": "%"},
      {"measurement": "incidence of dry skin", "setting": "patients; 4.5 mg orally once daily, placebo 15%", "value": 24, "unit": "%"},
      {"measurement": "incidence of cheilitis", "setting": "patients; 4.5 mg orally once daily, placebo 17%", "value": 66, "unit": "%"},
      {"measurement": "incidence of anxiety", "setting": "patients; [8]", "value": 1, "unit": "%"},
      {"measurement": "incidence of psychosis", "setting": "patients; [8]", "value": 0, "unit": "%"},
      {"measurement": "incidence of psychotic depression", "setting": "patients; [8]", "value": 0, "unit": "%"},
      {"measurement": "incidence of patients discontinuing due to adverse effects", "setting": "patients; 6.3 mg (n=16)", "value": 13, "unit": "%"},
      {"measurement": "incidence of patients discontinuing due to adverse effects", "setting": "patients; 0.4 to 1.1 mg oral tazarotene (n=105)", "value": "approximately 2%"},
      {"measurement": "incidence of patients discontinuing due to adverse effects", "setting": "patients; 2.1 to 2.8 mg oral tazarotene (n=21)", "value": 10, "unit": "%"},
      {"measurement": "incidence of patients discontinuing due to adverse effects", "setting": "patients; w.2 mg (n=14)", "value": 0, "unit": "%"},
      {"measurement": "changes in urinalysis, chemistry, or hematology measures (including liver function tests, triglycerides, total cholesterol, HDL cholesterol)", "setting": "[2]; 0.4 mg to 6 mg daily", "value": "no consistent dose-related clinically significant changes"},
      {"measurement": "ligament calcification, osteophyte formation, or changes in serum bone alkaline phosphatase, serum amino terminal telopeptides, or bone density", "setting": "[2]; 0.4 mg to 6 mg daily", "value": "not associated with any clinically significant"},
      {"measurement": "patients withdrawing due to adverse events", "setting": "[2]; 0.75 mg", "value": 2, "unit": "patients"},
      {"measurement": "incidence of joint disorder", "setting": "[2]; 2.8 mg, n=11", "value": 27, "unit": "%"},
      {"measurement": "incidence of arthralgia", "setting": "[2]; 2.8 mg, n=11", "value": 9, "unit": "%"},
      {"measurement": "incidence of myalgia", "setting": "[2]; 2.8 mg, n=11", "value": 0, "unit": "%"},
      {"measurement": "incidence of asthenia", "setting": "[2]; 2.8 mg, n=11", "value": 0, "unit": "%"},
      {"measurement": "incidence of dry skin", "setting": "[2]; 2.8 mg, n=11", "value": 18, "unit": "%"},
      {"measurement": "incidence of headache", "setting": "[2]; 2.8 mg, n=11", "value": 9, "unit": "%"},
      {"measurement": "incidence of cheilitis", "setting": "[2]; 2.8 mg, n=11", "value": 64, "unit": "%"},
      {"measurement": "patients withdrawing due to adverse events", "setting": "[2]; 3 mg", "value": 2, "unit": "patients"},
      {"measurement": "cheilitis, mild", "setting": "[2]; 3 mg group", "value": 25, "unit": "patients"},
      {"measurement": "cheilitis, moderate", "setting": "[2]; 3 mg group", "value": 3, "unit": "patients"},
      {"measurement": "cheilitis, severe", "setting": "[2]; 3 mg group", "value": 1, "unit": "patient"},
      {"measurement": "dry skin, mild", "setting": "[2]; 3 mg group", "value": 11, "unit": "patients"},
      {"measurement": "dry skin, moderate", "setting": "[2]; 3 mg group", "value": 2, "unit": "patient"},
      {"measurement": "depression", "setting": "[2]; 3 mg group (2 mild, 1 severe)", "value": "3 (8%) patients (%)"},
      {"measurement": "emotional lability (all cases mild)", "setting": "[2]; 3 mg group", "value": "1 (3%) patient (%)"},
      {"measurement": "incidence of joint disorder", "setting": "[2]; 3 mg, n=37", "value": 14, "unit": "%"},
      {"measurement": "incidence of arthralgia", "setting": "[2]; 3 mg, n=37", "value": 8, "unit": "%"},
      {"measurement": "incidence of myalgia", "setting": "[2]; 3 mg, n=37", "value": 16, "unit": "%"},
      {"measurement": "incidence of asthenia", "setting": "[2]; 3 mg, n=37", "value": 19, "unit": "%"},
      {"measurement": "incidence of dry skin", "setting": "[2]; 3 mg, n=37", "value": 35, "unit": "%"},
      {"measurement": "incidence of headache", "setting": "[2]; 3 mg, n=37", "value": 19, "unit": "%"},
      {"measurement": "incidence of cheilitis", "setting": "[2]; 3 mg, n=37", "value": 78, "unit": "%"},
      {"measurement": "patients withdrawing due to adverse events", "setting": "[2]; 6 mg", "value": 1, "unit": "patients"},
      {"measurement": "cheilitis, mild", "setting": "[2]; 6 mg group", "value": 27, "unit": "patients"},
      {"measurement": "cheilitis, moderate", "setting": "[2]; 6 mg group", "value": 6, "unit": "patients"},
      {"measurement": "cheilitis, severe", "setting": "[2]; 6 mg group", "value": 1, "unit": "patient"},
      {"measurement": "dry skin, mild", "setting": "[2]; 6 mg group", "value": 17, "unit": "patients"},
      {"measurement": "dry skin, moderate", "setting": "[2]; 6 mg group", "value": 1, "unit": "patient"},
      {"measurement": "depression", "setting": "[2]; 6 mg group", "value": "none"},
      {"measurement": "emotional lability (all cases mild)", "setting": "[2]; 6 mg group", "value": "5 (14%) patient (%)"},
      {"measurement": "incidence of joint disorder", "setting": "[2]; 6 mg, n=36", "value": 19, "unit": "%"},
      {"measurement": "incidence of arthralgia", "setting": "[2]; 6 mg, n=36", "value": 28, "unit": "%"},
      {"measurement": "incidence of myalgia", "setting": "[2]; 6 mg, n=36", "value": 25, "unit": "%"},
      {"measurement": "incidence of asthenia", "setting": "[2]; 6 mg, n=36", "value": 19, "unit": "%"},
      {"measurement": "incidence of dry skin", "setting": "[2]; 6 mg, n=36", "value": 50, "unit": "%"},
      {"measurement": "incidence of headache", "setting": "[2]; 6 mg, n=36", "value": 36, "unit": "%"},
      {"measurement": "incidence of cheilitis", "setting": "[2]; 6 mg, n=36", "value": 94, "unit": "%"},
      {"measurement": "patients withdrawing from either study due to adverse events", "setting": "[2]; 7/277, all groups incl. placebo", "value": 2.5, "unit": "%"},
      {"measurement": "dry skin, severe", "setting": "[2]; all groups", "value": "No patient has severe dry skin"}
    ]}
  ]
}
